According to patent publication US20210227854A1, “USE OF D-RIBOSE TO ENHANCE ADAPTATION TO PHYSICAL STRESS” (Bioenergy Life Science, Inc., priority 2014, published 2021):

Experiments:
Type in all cases: in vivo, human
[1] = Blood urea nitrogen (BUN) around three days of high-intensity exercise; details: for Change in BUN levels: Unfit Subgroup, p=0.88
Experimental: A high-intensity exercise protocol was designed as a double-blind, crossover study to assess the influence of D-Ribose adaptation to physical stress. Specifically, D-Ribose and a control (Dextrose) were administered on separate subjects at a dosage of ten grams per day (10 g/day). A variety of physiological parameters were measured in the subjects administered D-Ribose (DR) supplementation (i.e., the DR subjects) versus the subjects administered Dextrose (DEX) supplementation (i.e., the DEX subjects). To test D-ribose for adaptation, the twenty-six (26) adult subjects were further divided into two subgroups based on their fitness level (i.e., peak oxygen uptake (VO2 max) results. The first subgroup comprised subjects with higher VO2 max results (i.e., the “Fit Subgroup”) and the second subgroup comprised subjects with lower VO2 max results (i.e., the “Unfit Subgroup”). The Unfit Subgroup consisted of six (6) females and seven (7) males. The average age of the Unfit Subgroup was 27.7±3.4 years and the average peak VO2 of the Unfit Subgroup was 39.9±4.1 mL/kg/min. The Fit Subgroup consisted of four (4) females and nine (9) males. The average age of the Fit Subgroup was 27.6±3.5 year and the average peak VO2 of the Fit Subgroup was 52.2±4.3 mL/kg/min. […] Physiologic parameters were measured and hydration was provided to the subjects during the exercise session. […] Blood glucose was measured at all of the above time points except at twenty-four (24) hours post-exercise. Creatine kinase and BUN levels were measured at the pre-exercise (−10 min.) point during the three (3) days of exercise and twenty-four (24) hours post-exercise following the third (last) exercise session. Heart rate was recorded using a Polar HR monitor. Blood glucose levels were measured using a Bayer glucose monitor. Blood lactate levels were measured by an AccuSport Lactate Analyzer. Creatine kinase and BUN were measured utilizing an Abaxis Piccolo analyzer. Power data from the time trial performance test was assessed with the Sports Medicine Industries (SMI) software package.

[2] = Rating of perceived exertion (RPE) during exercise; details: for RPE (Borg 6-20 scale): 10 g/day, mean ± SD
Experimental: A high-intensity exercise protocol was designed as a double-blind, crossover study to assess the influence of D-Ribose adaptation to physical stress. Specifically, D-Ribose and a control (Dextrose) were administered on separate subjects at a dosage of ten grams per day (10 g/day). A variety of physiological parameters were measured in the subjects administered D-Ribose (DR) supplementation (i.e., the DR subjects) versus the subjects administered Dextrose (DEX) supplementation (i.e., the DEX subjects). To test D-ribose for adaptation, the twenty-six (26) adult subjects were further divided into two subgroups based on their fitness level (i.e., peak oxygen uptake (VO2 max) results. The first subgroup comprised subjects with higher VO2 max results (i.e., the “Fit Subgroup”) and the second subgroup comprised subjects with lower VO2 max results (i.e., the “Unfit Subgroup”). The Unfit Subgroup consisted of six (6) females and seven (7) males. The average age of the Unfit Subgroup was 27.7±3.4 years and the average peak VO2 of the Unfit Subgroup was 39.9±4.1 mL/kg/min. The Fit Subgroup consisted of four (4) females and nine (9) males. The average age of the Fit Subgroup was 27.6±3.5 year and the average peak VO2 of the Fit Subgroup was 52.2±4.3 mL/kg/min. The protocol of the double-blind crossover study involved an initial baseline assessment, followed by two separate day assessments after consuming either a DR or DEX supplement. Each exercise session entailed measurements of creatine kinase (CK), blood urea nitrogen (BUN), glucose, heart rate (HR), rate of perceived exertion (RPE), and power output (PO) measurements. […] The Likert scale (0-10 points) was used to subjectively assess quadriceps muscle soreness, overall fatigue, appetite, perceived performance, and sleep quality. These scales were completed prior to and following each exercise session.

[3] = Tolerability of supplementation in the exercise study; details: 10 g/day; 26 subjects
Experimental: A high-intensity exercise protocol was designed as a double-blind, crossover study to assess the influence of D-Ribose adaptation to physical stress. Specifically, D-Ribose and a control (Dextrose) were administered on separate subjects at a dosage of ten grams per day (10 g/day). A variety of physiological parameters were measured in the subjects administered D-Ribose (DR) supplementation (i.e., the DR subjects) versus the subjects administered Dextrose (DEX) supplementation (i.e., the DEX subjects).
The subjects consisted of twenty-six (26) healthy individual (10 females, 16 males). Each subject was randomly categorized as a DR subject or a DEX subject for the administration of supplementation. Furthermore, each subject was required to maintain his or her normal diet during the study, as well as performing his or her normal daily activities without performing any additional separate exercise sessions not part of the study protocol. […]

Structure (SMILES) | Change in BUN levels [1] | RPE ([2]; Fit Subgroup) | RPE (Borg 6-20 scale) ([2]; Fit Subgroup) | RPE (Borg 6-20 scale) ([2]; Unfit Subgroup) | RPE ([2]; Unfit Subgroup, p=0.003) | Average rate of perceived exertion, DEX subjects versus DR subjects (FIG. 1) ([2]; all measured points of the exercise sessions) | Tolerability of supplement [3] | Change in BUN levels, DR versus DEX ([1]; Fit Subgroup)
O=C[C@H](O)[C@@H](O)[C@H](O)[C@H](O)CO [DEX, Dextrose, reference compound] | 1.08±2.56 | 14±2 | 13.9 ± 1.6 | 13.5 ± 1.5 | 14±2 | greater | without any subjective complaints or issues | 
O=C[C@H](O)[C@H](O)[C@H](O)CO [DR, D-Ribose] | 0.93±2.66 | 14±2 | 13.6 ± 1.8 | 13.1 ± 1.6 | 13±2 |  | without any subjective complaints or issues | No differences
